# Structures can show the parent of a compound that is named as a salt. Where two headings read alike, the source gives them in different places.
# Legend:
# [1] = molecular target: T1, rat MAO-A (Rattus norvegicus, UniProt P21396); experiment: Monoamine oxidase A (MAO-A) activity assay, spectrophotometric enzymatic kit; assay type: biochemical
# T1 sequence (P21396 1-526): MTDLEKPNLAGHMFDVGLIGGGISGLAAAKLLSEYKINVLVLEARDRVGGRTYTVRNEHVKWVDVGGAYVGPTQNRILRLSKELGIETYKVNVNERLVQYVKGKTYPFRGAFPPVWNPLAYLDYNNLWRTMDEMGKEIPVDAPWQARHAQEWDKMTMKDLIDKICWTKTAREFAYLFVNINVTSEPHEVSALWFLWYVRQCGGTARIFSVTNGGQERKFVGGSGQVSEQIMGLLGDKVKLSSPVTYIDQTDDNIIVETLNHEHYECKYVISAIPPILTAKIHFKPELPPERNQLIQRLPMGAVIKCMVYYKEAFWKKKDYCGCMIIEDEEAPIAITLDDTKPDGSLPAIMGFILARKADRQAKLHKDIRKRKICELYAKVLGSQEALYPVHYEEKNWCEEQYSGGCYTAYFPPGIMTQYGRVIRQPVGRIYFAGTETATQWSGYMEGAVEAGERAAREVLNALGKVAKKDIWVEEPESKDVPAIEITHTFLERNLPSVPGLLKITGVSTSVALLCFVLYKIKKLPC
# Protocol: MAO was purified from the rat liver according to the Gómez method after minor modification. The liver tissue was rapidly removed into ice cold homogenized (1 : 10, w/v) in 50 mM KH2PO4 buffer, pH 7.2, containing […]. Following centrifugation at 1000 g for 10 min, the supernatant was centrifuged at 10,000 g for 30 min to obtain crude mitochondrial pellet.
# The MAO-A activity was measured by spectrophotometrically (Mapada, UV-3100, China) using enzymatic kits according to the instructions (Nanjing Jiancheng Institute of Biotechnology). IC50 values were used to estimate the inhibition calculated in relation to a sample of the enzyme treated under the same conditions without inhibitor, versus inhibitor concentration.
# [2] = set-up: method as in PMID 3435494, PMID 20515525; details: must be hydrolyzed by gut microflora enzymes to aglycone naringenin; cited from earlier work
# [3] = tested on: CUMS treated rats; experiment: Ethological study of antidepressant effect on CUMS rat model (body weight, open-field test, sucrose consumption); assay type: in vivo; details: n=8
# Protocol: 40 healthy, adult, male Wistar rats, weighing 200 ± 20 g each, were purchased from the Institute of Laboratory Animal Science, CAMS and PUMC (Beijing, China). The rats were housed individually in cages for one week to adapt to the environment under controlled conditions of 12 h light–12 h dark cycles (lights on from 6:00 a.m. to 6:00 p.m.), […], and temperature (20 ± 3°C) with commercial diet and water available ad libitum. All experimental procedures were approved by the Ethics Committee of the Institute of Medicinal Plant Development, CAMS & PUMC.
# All rats except control group were subjected to a series of variable stimuli as previously described after minor modification.
# The antidepressant effects of CSGS and QZ extracts were evaluated on a CUMS rat model, a well-validated animal model of depression (see supplementary material Table S1 available online at http://dx.doi.org/10.1155/2013/487158).
# [4] = rat MAO-A as enzyme source (rat liver mitochondrial pellet)
# [5] = rat MAO-A as enzyme source (rat liver mitochondrial pellet), read-out: IC50, inhibition against MAO-A activity
Structure (SMILES),"IC50, inhibition against MAO-A activity [1, 4]","IC50 [1, 5] [µM]",IC50 [1] [µM],other results
COc1ccc([C@@H]2CC(=O)c3c(O)cc(O[C@@H]4O[C@H](CO)[C@@H](O)[C@H](O)[C@H]4O[C@@H]4O[C@@H](C)[C@H](O)[C@@H](O)[C@H]4O)cc3O2)cc1O [Neohesperidin],relatively weak,93.8,,
COc1ccc([C@@H]2CC(=O)c3c(O)cc(O[C@@H]4O[C@H](CO[C@@H]5O[C@@H](C)[C@H](O)[C@@H](O)[C@H]5O)[C@@H](O)[C@H](O)[C@H]4O)cc3O2)cc1O [Hesperidin],relatively weak,26.7,,
C[C@@H]1O[C@@H](O[C@H]2[C@H](Oc3cc(O)c4c(c3)O[C@H](c3ccc(O)cc3)CC4=O)O[C@H](CO)[C@@H](O)[C@@H]2O)[C@H](O)[C@H](O)[C@H]1O [Naringin],,,5.82,Absorption from the gastrointestinal tract in its original form [2]: poorly absorbed
"CNCCC(Oc1ccc(C(F)(F)F)cc1)c1ccccc1 (stereo not drawn) [Positive control, Fluoxetine hydrochloride]",,,,"Body weight, 0W ([3]; 0W (baseline), mean): 191.702 g; Sucrose consumption, 4W ([3]; 4W of treatment): 17.5 g; Open-field test (OFT), 0W ([3]; horizontal movements, 0W (baseline), mean): 81.7; Open-field test (OFT), 4W ([3]; horizontal movements, 4W of treatment, mean): 61.4"
CNCC(O)c1ccc(O)cc1 (stereo not drawn) [Synephrine],relatively weak,,15.2,

# From publication PMC3638638, “Metabonomics Combined with UPLC-MS Chemical Profile for Discovery of Antidepressant Ingredients of a Traditional Chinese Medicines Formula, Chaihu-Shu-Gan-San” (Evidence-based Complementary and Alternative Medicine : eCAM, 2013)
